# Values of other authors as cited in patent publication US5613958A, “Transdermal delivery systems for the modulated administration of drugs” (PP Holdings Inc., priority 1995, dated 1997).
# Settings: for accumulation in plasma: during continuous ISDN therapy
SMILES,accumulation in plasma,antianginal efficacy (dose regimens letting IS-5-MN fall below 100 ng/ml before next dose),rate of elimination (metabolite of ISDN)
"O=[N+]([O-])O[C@H]1CO[C@H]2[C@@H]1OC[C@H]2O [IS-2-MN, isosorbide 2-mononitrate]",accumulate in the plasma,,
"O=[N+]([O-])O[C@@H]1CO[C@H]2[C@@H]1OC[C@@H]2O [IS-5-MN, isosorbide 5-mononitrate]",accumulate in the plasma,continuous antianginal efficacy,slowest rate of elimination
